Test results published in PubChem BioAssay (NCI).
Where “and” joins values, the source holds several entries; their conditions need not be identical. Equal entries are not always repeated.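 Interpolation was linear, between the two tested concentrations surrounding the appropriate level; five concentrations were tested over 48 hours in 96-well plates. Here, GI50 denotes the concentration required for 50% inhibition of growth. The concentration for full growth arrest is given as TGI.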

Legend:
Assay in all cases: NCI anticancer screen, dose series, 48 h
786-0 renal = system: 786-0 renal
A498 renal = system: A498 renal
A549 NSCLC = system: A549 NSCLC
ACHN renal = system: ACHN renal
BT-549 breast = system: BT-549 breast
CAKI-1 renal = system: CAKI-1 renal
CCRF-CEM leukemia = system: CCRF-CEM leukemia
COLO 205 colon = system: COLO 205 colon
DU-145 prostate = system: DU-145 prostate
EKVX NSCLC = system: EKVX NSCLC
HCC-2998 colon = system: HCC-2998 colon
HCT-116 colon = system: HCT-116 colon
HCT-15 colon = system: HCT-15 colon
HL-60(TB) leukemia = system: HL-60(TB) leukemia
HOP-62 NSCLC = system: HOP-62 NSCLC
HOP-92 NSCLC = system: HOP-92 NSCLC
HS 578T breast = system: HS 578T breast
HT29 colon = system: HT29 colon
IGROV1 ovarian = system: IGROV1 ovarian
K-562 leukemia = system: K-562 leukemia
KM12 colon = system: KM12 colon
LOX IMVI melanoma = system: LOX IMVI melanoma
M14 melanoma = system: M14 melanoma
MALME-3M melanoma = system: MALME-3M melanoma
MCF7 breast = system: MCF7 breast
MDA-MB-231 breast = system: MDA-MB-231 breast
MDA-MB-435 = system: MDA-MB-435
MDA-N = system: MDA-N
MOLT-4 leukemia = system: MOLT-4 leukemia
NCI-H226 lung = system: NCI-H226 lung
NCI-H23 lung = system: NCI-H23 lung
NCI-H460 lung = system: NCI-H460 lung
NCI-H522 lung = system: NCI-H522 lung
NCI/ADR-RES ovarian = system: NCI/ADR-RES ovarian
OVCAR-3 ovarian = system: OVCAR-3 ovarian
OVCAR-4 ovarian = system: OVCAR-4 ovarian
OVCAR-5 ovarian = system: OVCAR-5 ovarian
OVCAR-8 ovarian = system: OVCAR-8 ovarian
PC-3 prostate = system: PC-3 prostate
RPMI-8226 leukemia = system: RPMI-8226 leukemia
RXF 393 renal = system: RXF 393 renal
SF-268 CNS = system: SF-268 CNS
SF-295 CNS = system: SF-295 CNS
SF-539 CNS = system: SF-539 CNS
SK-MEL-2 melanoma = system: SK-MEL-2 melanoma
SK-MEL-28 melanoma = system: SK-MEL-28 melanoma
SK-MEL-5 melanoma = system: SK-MEL-5 melanoma
SK-OV-3 ovarian = system: SK-OV-3 ovarian
SN12C renal = system: SN12C renal
SNB-19 CNS = system: SNB-19 CNS
SNB-75 CNS = system: SNB-75 CNS
SR leukemia = system: SR leukemia
SW-620 colon = system: SW-620 colon
T-47D breast = system: T-47D breast
TK-10 renal = system: TK-10 renal
U251 CNS = system: U251 CNS
UACC-257 melanoma = system: UACC-257 melanoma
UACC-62 melanoma = system: UACC-62 melanoma
UO-31 renal = system: UO-31 renal

Compound COc1cc(/C=C2\CCC(C)C3=C(c4cc(OC)c(OC)c(OC)c4)C(C#N)=C(N)OC32)cc(OC)c1OC (stereo not given) has a TGI (786-0 renal) of 8.83 µM, a TGI (A498 renal) of over 53.4 µM and a TGI (A549 NSCLC) of over 100 µM. The TGI (ACHN renal) was over 65.6 µM, the TGI (BT-549 breast) was over 100 µM and the TGI (CAKI-1 renal) was over 65.2 µM. For the same compound, the TGI (CCRF-CEM leukemia) was 26.2 µM, the TGI (COLO 205 colon) was 5.48 µM and the TGI (DU-145 prostate) was over 100 µM. For the same compound, the TGI (EKVX NSCLC) was 47.6 µM, the TGI (HCC-2998 colon) was 32.5 µM and the TGI (HCT-116 colon) was 11.3 µM. It also gave a TGI (HCT-15 colon) of over 68.2 µM, a TGI (HL-60(TB) leukemia) of over 25 µM and a TGI (HOP-62 NSCLC) of over 100 µM. It also gave a TGI (HOP-92 NSCLC) of over 31.3 µM, a TGI (HS 578T breast) of 14.6 µM and a TGI (HT29 colon) of 5.02 µM. For the same compound, the TGI (IGROV1 ovarian) was over 52.3 µM, the TGI (K-562 leukemia) was over 100 µM and the TGI (KM12 colon) was 36.8 µM. It also gave a TGI (LOX IMVI melanoma) of 8.99 µM, a TGI (M14 melanoma) of 6.92 µM and a TGI (MALME-3M melanoma) of 9.03 µM. For the same compound, the TGI (MCF7 breast) was 7.4 µM, the TGI (MDA-MB-231 breast) was 10.9 µM and the TGI (MDA-MB-435) was 21.6 µM. It also gave a TGI (MDA-N) of 21.9 µM, a TGI (MOLT-4 leukemia) of over 49 µM and a TGI (NCI-H226 lung) of 6.96 µM. It also gave a TGI (NCI-H23 lung) of over 100 µM, a TGI (NCI-H460 lung) of over 100 µM and a TGI (NCI-H522 lung) of 7.75 µM. For the same compound, the TGI (NCI/ADR-RES ovarian) was 99.2 µM, the TGI (OVCAR-3 ovarian) was over 60.1 µM and the TGI (OVCAR-4 ovarian) was over 59.6 µM. The TGI (OVCAR-5 ovarian) was over 64.6 µM, the TGI (OVCAR-8 ovarian) was over 73 µM and the TGI (PC-3 prostate) was 24.8 µM. It also gave a TGI (RPMI-8226 leukemia) of 6.08 µM, a TGI (RXF 393 renal) of 4.36 µM and a TGI (SF-268 CNS) of over 100 µM. It also gave a TGI (SF-295 CNS) of over 40.6 µM, a TGI (SF-539 CNS) of 4.98 µM and a TGI (SK-MEL-2 melanoma) of 4.46 µM. It also gave a TGI (SK-MEL-28 melanoma) of 13.9 µM, a TGI (SK-MEL-5 melanoma) of 7.24 µM and a TGI (SK-OV-3 ovarian) of over 57.2 µM. It also gave a TGI (SN12C renal) of over 60.6 µM, a TGI (SNB-19 CNS) of over 100 µM and a TGI (SNB-75 CNS) of 9.24 µM. The TGI (SR leukemia) was over 37.8 µM, the TGI (SW-620 colon) was over 100 µM and the TGI (T-47D breast) was 12.9 µM. For the same compound, the TGI (TK-10 renal) was over 100 µM, the TGI (U251 CNS) was 25.7 µM and the TGI (UACC-257 melanoma) was over 65.4 µM. For the same compound, the TGI (UACC-62 melanoma) was 23.2 µM and the TGI (UO-31 renal) was over 100 µM.
Compound O=C(O)c1cc2cc(OCc3ccccc3)ccc2[nH]1 has a TGI (786-0 renal) of over 100 µM, a GI50 (A498 renal) of 35.1 µM and a TGI (A498 renal) of over 100 µM. The TGI (A549 NSCLC) was over 100 µM, the TGI (ACHN renal) was over 100 µM and the GI50 (BT-549 breast) was 59.1 µM. It also gave a TGI (BT-549 breast) of over 100 µM, a GI50 (CAKI-1 renal) of over 84.2 µM and a TGI (CAKI-1 renal) of over 100 µM. It also gave a TGI (CCRF-CEM leukemia) of over 100 µM, a TGI (COLO 205 colon) of over 100 µM and a TGI (DU-145 prostate) of over 100 µM. For the same compound, the TGI (EKVX NSCLC) was over 100 µM, the TGI (HCC-2998 colon) was over 100 µM and the TGI (HCT-116 colon) was over 100 µM. It also gave a TGI (HCT-15 colon) of over 100 µM, a TGI (HL-60(TB) leukemia) of over 100 µM and a TGI (HOP-62 NSCLC) of over 100 µM. The GI50 (HOP-92 NSCLC) was 20.7 µM, the TGI (HOP-92 NSCLC) was 92.4 µM and > 100 µM and the GI50 (HS 578T breast) was over 85 µM. For the same compound, the TGI (HS 578T breast) was 77.4 µM and > 100 µM, the GI50 (HT29 colon) was over 100 µM and the TGI (HT29 colon) was over 100 µM. The GI50 (IGROV1 ovarian) was 52.4 µM, the TGI (IGROV1 ovarian) was over 100 µM and the TGI (K-562 leukemia) was over 100 µM. The TGI (KM12 colon) was over 100 µM, the TGI (LOX IMVI melanoma) was over 100 µM and the TGI (M14 melanoma) was over 100 µM. For the same compound, the GI50 (MALME-3M melanoma) was 0.198 µM, the TGI (MALME-3M melanoma) was 0.762 µM and 1.56 µM and the GI50 (MCF7 breast) was over 100 µM. It also gave a TGI (MCF7 breast) of over 100 µM, a TGI (MDA-MB-231 breast) of over 100 µM and a TGI (MDA-MB-435) of over 100 µM. For the same compound, the TGI (MDA-N) was over 100 µM, the TGI (MOLT-4 leukemia) was over 100 µM and the GI50 (NCI-H226 lung) was over 100 µM. The TGI (NCI-H226 lung) was 93.1 µM and > 100 µM, the TGI (NCI-H23 lung) was over 100 µM and the TGI (NCI-H460 lung) was over 100 µM. The TGI (NCI-H522 lung) was over 100 µM, the TGI (NCI/ADR-RES ovarian) was over 100 µM and the TGI (OVCAR-3 ovarian) was over 100 µM. The GI50 (OVCAR-4 ovarian) was over 100 µM, the TGI (OVCAR-4 ovarian) was over 100 µM and the TGI (OVCAR-5 ovarian) was over 100 µM. For the same compound, the TGI (OVCAR-8 ovarian) was over 100 µM, the TGI (PC-3 prostate) was over 100 µM and the TGI (RPMI-8226 leukemia) was over 100 µM. It also gave a TGI (RXF 393 renal) of over 100 µM, a TGI (SF-268 CNS) of over 100 µM and a TGI (SF-295 CNS) of over 100 µM. The TGI (SF-539 CNS) was over 100 µM, the GI50 (SK-MEL-2 melanoma) was over 100 µM and the TGI (SK-MEL-2 melanoma) was over 100 µM. For the same compound, the GI50 (SK-MEL-28 melanoma) was 8.32 µM, the TGI (SK-MEL-28 melanoma) was 61.7 µM and > 100 µM and the TGI (SK-MEL-5 melanoma) was over 100 µM. The TGI (SK-OV-3 ovarian) was over 100 µM, the TGI (SN12C renal) was over 100 µM and the GI50 (SNB-19 CNS) was over 100 µM. It also gave a TGI (SNB-19 CNS) of over 100 µM, a GI50 (SNB-75 CNS) of 34.2 µM and a TGI (SNB-75 CNS) of over 100 µM. For the same compound, the TGI (SR leukemia) was over 100 µM, the TGI (SW-620 colon) was over 100 µM and the TGI (T-47D breast) was over 100 µM. It also gave a TGI (TK-10 renal) of over 100 µM, a TGI (U251 CNS) of over 100 µM and a GI50 (UACC-257 melanoma) of over 74 µM. The TGI (UACC-257 melanoma) was over 100 µM, the TGI (UACC-62 melanoma) was over 100 µM and the GI50 (UO-31 renal) was 1.92 µM. It also gave a TGI (UO-31 renal) of over 100 µM.
